Source: article PMC12138161, “Structure–activity analysis of imino‐pyrimidinone‐fused pyrrolidines aids the development of dual plasmepsin V and plasmepsin X inhibitors” (The Febs Journal, 2025)
Values joined by “and” are separate entries in the source; they are usually repeats but may differ in a detail not shown here. Identical values can stand only once. Like-named read-outs stand apart in the source and are kept apart here.

How the values were obtained:
[1] = system: PMV; conditions: cited from earlier work
[2] = system: 3D7 strain of Plasmodium falciparum; conditions: blood stage growth, read-out: Pf 3D7 EC50; cited from earlier work
[3] = system: PMIX; conditions: cited from earlier work
[4] = system: PMX; conditions: cited from earlier work
[5] = target: T1, Plasmodium falciparum PMIX (Plasmodium falciparum, UniProt Q8ILG2); assay: Plasmepsin IX fluorogenic substrate cleavage assay; type: biochemical; conditions: P. falciparum PMIX; average of three independent experiments; read-out: PMIX IC50 (SD)
T1 sequence (Q8ILG2 1-627): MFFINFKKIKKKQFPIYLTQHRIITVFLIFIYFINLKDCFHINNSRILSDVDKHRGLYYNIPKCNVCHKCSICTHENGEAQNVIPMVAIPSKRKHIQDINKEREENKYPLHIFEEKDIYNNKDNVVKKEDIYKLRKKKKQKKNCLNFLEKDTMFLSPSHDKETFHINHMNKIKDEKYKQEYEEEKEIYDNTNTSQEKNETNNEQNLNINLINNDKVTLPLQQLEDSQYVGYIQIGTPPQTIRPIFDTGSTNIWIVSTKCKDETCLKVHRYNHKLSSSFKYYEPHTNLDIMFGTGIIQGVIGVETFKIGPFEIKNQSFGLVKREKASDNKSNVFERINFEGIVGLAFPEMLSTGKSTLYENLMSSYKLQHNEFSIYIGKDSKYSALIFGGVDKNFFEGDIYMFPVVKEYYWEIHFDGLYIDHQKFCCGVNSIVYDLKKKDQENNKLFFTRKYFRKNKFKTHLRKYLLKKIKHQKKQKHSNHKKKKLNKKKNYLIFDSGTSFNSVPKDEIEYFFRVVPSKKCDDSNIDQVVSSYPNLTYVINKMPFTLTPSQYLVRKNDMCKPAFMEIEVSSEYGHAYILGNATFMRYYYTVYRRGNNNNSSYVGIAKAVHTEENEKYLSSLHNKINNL
Protocol: (§1) These fluorogenic assays follow protocols previously described. Compound potency was assessed with 10 point, threefold dilution series starting at 100 μM in duplicate per experiment and repeated in three independent experiments. Data were normalized to percent inhibition relative to 1% DMSO (high control) and either 1 μM WEHI‐600 for PMV and 1 μM WM382 for PMIX/PMX (low controls). IC50 values (relative inflection of dose–response curve) were calculated using a nonlinear regression four‐parameter fit analysis in DOTMATICS 5.3 (Dotmatics, Boston, MA, USA) and SPOTFIRE 7.11.1 (Goteborg, Sweden) software. The equation used was sigmoidal dose–response (variable slope), Y = bottom + (top − bottom)/(1 + 10 ((logIC50 − X) × Hill Slope)). Reported IC50 values were calculated based on the averages of three independent dataset. Assay robustness and data quality was assessed by Z′ > 0.5 (Z′ = 1 − (3 × (SD high + SD low)/(mean high − mean low))) and activity reproducibility of reference compound. WEHI‐600 (PMV) or WM382 (PMIX/PMX) were included as reference compounds in every experiment to monitor the assay performance. Any drift in activity greater than threefold from the average acceptable range and the experiment was rejected and repeated.

[6] = target: T2, recombinant Plasmodium vivax PMV (Plasmodium vivax, UniProt A5K302); assay: Plasmepsin V fluorogenic substrate cleavage assay; type: biochemical; conditions: for IC50: recombinant P. vivax PMV, average of three independent experiments, read-out: PMV IC50 (SD)
T2 construct: PvPMV (residues R35–R476) was prepared similarly; gp67 signal peptide (N); TEV protease cleavage site + FLAG tag (C); made in house; host or cells: Sf21 insect cells
T2 sequence (A5K302 35-476): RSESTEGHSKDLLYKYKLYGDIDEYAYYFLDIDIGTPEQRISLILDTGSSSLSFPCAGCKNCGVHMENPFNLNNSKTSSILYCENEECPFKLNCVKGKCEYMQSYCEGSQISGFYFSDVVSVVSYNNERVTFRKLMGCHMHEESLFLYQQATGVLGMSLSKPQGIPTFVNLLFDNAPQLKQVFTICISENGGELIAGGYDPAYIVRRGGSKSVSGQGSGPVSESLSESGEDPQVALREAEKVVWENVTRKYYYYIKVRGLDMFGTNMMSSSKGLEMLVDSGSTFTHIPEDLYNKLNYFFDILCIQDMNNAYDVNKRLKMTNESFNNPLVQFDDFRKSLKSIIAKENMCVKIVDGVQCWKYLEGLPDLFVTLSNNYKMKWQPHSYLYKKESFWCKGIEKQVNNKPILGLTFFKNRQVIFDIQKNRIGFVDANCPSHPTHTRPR
Description: To uncover nonpeptidomimetic drug‐like inhibitors of the aspartic protease PvPMV, we screened a library of 1298 compounds that were known to inhibit human aspartyl proteases. These compounds were selected by chemoinformatic structural diversity from a larger library of compounds that targeted human aspartyl proteases and has been used previously to identify hit compounds that inhibited P. falciparum growth. These hit compounds belonged to a single chemical class and were used to develop a lead compound WM382 that is a dual selective inhibitor of PMIX and PMX from P. falciparum and P. vivax. The screen utilized a FRET‐based assay with PvPMV and a fluorogenic EDANS‐DACBYL labeled peptide with the P. falciparum knob‐associated histidine‐rich protein (KAHRP) PEXEL motif amino acid sequence.
as §1

[7] = system: P. falciparum 3D7 asexual parasites; assay: P. falciparum growth inhibition assay (LDH activity, 72 h); type: cell-based, Plasmodium falciparum; conditions: for EC50: Plasmodium falciparum, 3D7 asexual parasites, 72 h exposure, LDH activity, three independent experiments, read-out: Pf 3D7 EC50 (SD)
Protocol: The ability of compounds to block growth of blood stage P. falciparum parasites was determined using a growth inhibition assay (GIA) as described. Compound potency was assessed with 10 point, threefold dilution series starting at 10 μM in duplicate per experiment and repeated in three independent experiments. Data were normalized to percent viability relative to 0.1% DMSO (high growth control) and 2.5 μM chloroquine (low growth control). EC50 values (relative inflection of dose–response curve) were calculated using a nonlinear regression four‐parameter fit analysis in DOTMATICS 5.3 and SPOTFIRE 7.11.1 software. The equation used was sigmoidal dose–response (variable slope), Y = bottom + (top − bottom)/(1 + 10 ((logEC50 − X) × Hill Slope)). Reported EC50 values were calculated on the average of three independent dataset. Assay robustness and data quality was assessed by Z′ > 0.5 (Z′ = 1 − (3 × (SD high + SD low)/(mean high − mean low))) and activity reproducibility of reference compound WM382, which was included in every experiment. Any drift in WM382 activity greater than threefold from the average acceptable range and the experiment was rejected and repeated.

[8] = target: P. falciparum PMX (Plasmodium falciparum, UniProt Q8IAS0); assay: Plasmepsin X fluorogenic substrate cleavage assay; type: biochemical; conditions: for IC50: P. falciparum PMX, average of three independent experiments, read-out: PMX IC50 (SD)
Sequence of P. falciparum PMX (Q8IAS0 222-573): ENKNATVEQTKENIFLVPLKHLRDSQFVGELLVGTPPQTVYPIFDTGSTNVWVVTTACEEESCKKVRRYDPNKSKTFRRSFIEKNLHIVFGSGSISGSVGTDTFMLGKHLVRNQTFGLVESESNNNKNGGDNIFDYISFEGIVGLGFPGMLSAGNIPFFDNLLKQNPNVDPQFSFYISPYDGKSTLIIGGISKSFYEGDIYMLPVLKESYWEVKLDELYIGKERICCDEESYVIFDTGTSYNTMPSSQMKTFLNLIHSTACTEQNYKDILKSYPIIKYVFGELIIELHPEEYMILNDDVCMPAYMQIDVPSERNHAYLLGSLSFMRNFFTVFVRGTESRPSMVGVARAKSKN
Protocol: as §1

SMILES	IC50 [5]	IC50 [6]	IC50 [8]	EC50 [7]	further results
C[C@@H](NC[C@@H](O)[C@H](Cc1ccccc1)NC(=O)c1ccc(C(=O)N2CCN(C)CC2)cc1)c1ccccc1 [49c (3)]	–	–	–	–	IC50 [1]: > 1000 nM; EC50 [2]: 0.6 nM; IC50 [3]: 650 nM; IC50 [4]: 1.4 nM
CN1C(=N)NC2(c3cc(F)ccc3F)CN(c3ncccc3-c3ccccc3C(F)(F)F)CC2C1=O (centres unmarked) [Compound 10]	3970 nM	3450 nM	1280 nM	> 10000 nM	–
CN1C(=N)NC2(c3cc(F)ccc3F)CN(c3ncccc3-c3cccc(Cl)c3)CC2C1=O (centres unmarked) [Compound 12]	390 to 1170 nM and 560 nM	> 3700 nM	390 to 1170 nM and 390 nM	> 10000 nM	–
COc1cccc(-c2cccnc2N2CC3C(=O)N(C)C(=N)NC3(c3cc(F)ccc3F)C2)c1 (centres unmarked) [Compound 13]	390 to 1170 nM and 1170 nM	1500 nM	390 to 1170 nM and 473 nM	> 10000 nM	–
COc1ccc(-c2cccnc2N2CC3C(=O)N(C)C(=N)NC3(c3cc(F)ccc3F)C2)cc1 (centres unmarked) [Compound 15]	2000 nM	3600 nM	473 nM	> 10000 nM	–
CN1C(=N)NC2(c3cc(F)ccc3F)CN(c3ncccc3-c3ccc(Cl)cc3C(F)(F)F)CC2C1=O (centres unmarked) [Compound 18]	1080 nM	> 3700 nM	483 nM	> 10000 nM	–
CN1C(=N)NC2(c3cc(F)ccc3F)CN(c3ncccc3-c3ccc(Cl)c(Cl)c3)CC2C1=O (centres unmarked) [Compound 19]	434 nM	> 3700 nM	187 nM	> 10000 nM	–
COc1ccc(-c2cccnc2N2CC3C(=O)N(C)C(=N)NC3(c3cc(F)ccc3F)C2)c(Cl)c1 (centres unmarked) [Compound 23]	1630 nM	3170 nM	420 nM	> 10000 nM	–
CN1C(=N)NC2(c3cc(F)ccc3F)CN(c3ncccc3-c3cccs3)CC2C1=O (centres unmarked) [Compound 24]	1200 nM	1230 nM	67 nM	1770 nM	–
CN1C(=N)NC2(c3cc(F)ccc3F)CN(c3nn(C)cc3-c3ccccc3)CC2C1=O (centres unmarked) [Compound 29]	10400 nM	1050 nM	3470 nM	> 10000 nM	–
CN1C(=N)NC2(c3cc(F)ccc3F)CN(c3ncccc3-c3sccc3Cl)CC2C1=O (centres unmarked) [R/S‐WM396 (25)]	350 nM	1110 nM	9 nM	200 nM	more potent against PMX ([8]; than the unsubstituted comparator analog 24): 8 ×
Cc1c(NC(=O)c2cccc(C#N)c2)cccc1[C@]1(C)CC(=O)N([C@H]2CCO[C@@H](C)C2)C(=N)N1 [UCB7362 (4)]	–	–	–	–	EC50 [2]: 10 nM; IC50 [3]: 142 nM; IC50 [4]: 7 nM
CC(C)C[C@H](NC(=O)[C@@H](NC(=O)[C@H](CCONC(=N)N)NC(=O)OCc1ccccc1)C1CCCCC1)[C@@H](O)CC(=O)NCCc1ccccc1 [WEHI-601 (2)]	–	–	–	–	IC50 [1]: 5 nM; IC50 ([1]; stated in text with reference to Fig. 1): < 20 nM; EC50 [2]: 90 nM; IC50 [3]: > 50000 nM; IC50 [4]: 330 nM

The next lines start with results.

IC50 [5]	IC50 [6]	IC50 [8]	SMILES	EC50 [7]	further results
3000 nM	440 nM	1070 nM	CN1C(=N)NC2(c3cc(F)ccc3F)CN(c3ncccc3-c3ccccc3)CC2C1=O (centres unmarked) [Compound 6]	> 10000 nM	–
4530 nM	1020 nM	1330 nM	CN1C(=N)NC2(c3cc(F)ccc3F)CN(c3ncccc3-c3ccccc3F)CC2C1=O (centres unmarked) [Compound 7]	> 10000 nM	–
5500 nM	610 nM	2070 nM	Cc1ccccc1-c1cccnc1N1CC2C(=O)N(C)C(=N)NC2(c2cc(F)ccc2F)C1 (centres unmarked) [Compound 9]	> 10000 nM	–
> 10000 nM	303 nM	7500 nM	COc1ccccc1-c1cccnc1N1CC2C(=O)N(C)C(=N)NC2(c2cc(F)ccc2F)C1 (centres unmarked) [Compound 11]	> 10000 nM	improvement of PMV inhibition ([6]; compared with WM36 (8)): 2.5 fold
417 nM	780 nM	1330 nM	CN1C(=N)NC2(c3cc(F)ccc3F)CN(c3ncccc3-c3ccc(Cl)cc3F)CC2C1=O (centres unmarked) [Compound 16]	> 10000 nM	–
360 nM	517 nM	1070 nM	CN1C(=N)NC2(c3cc(F)ccc3F)CN(c3ncccc3-c3ccc(Cl)cc3Cl)CC2C1=O (centres unmarked) [Compound 17]	> 10000 nM	–
1150 nM	1010 nM	440 nM	CN1C(=N)NC2(c3cc(F)ccc3F)CN(c3ncccc3-c3ccc(Cl)c(F)c3)CC2C1=O (centres unmarked) [Compound 20]	> 10000 nM	–
3230 nM	967 nM	990 nM	CN1C(=N)NC2(c3cc(F)ccc3F)CN(c3ncccc3-c3ccc(F)cc3Cl)CC2C1=O (centres unmarked) [Compound 21]	> 10000 nM	–
1630 nM	690 nM	420 nM	Cc1ccc(-c2cccnc2N2CC3C(=O)N(C)C(=N)NC3(c3cc(F)ccc3F)C2)c(Cl)c1 (centres unmarked) [Compound 22]	> 10000 nM	–
–	610 nM	70 nM	CN1C(=N)NC2(c3cc(F)ccc3F)CN(c3ncccc3-c3ccc(Cl)s3)CC2C1=O (centres unmarked) [Compound 26]	2500 nM	–
990 nM	440 nM	473 nM	CN1C(=N)NC2(c3cc(F)ccc3F)CN(c3ncsc3-c3ccccc3)CC2C1=O (centres unmarked) [Compound 27]	> 10000 nM	–
4870 nM	807 nM	1100 nM	CN1C(=N)NC2(c3cc(F)ccc3F)CN(c3ncccc3-c3ccccc3Cl)CC2C1=O (centres unmarked) [R/S‐WM36 (8)]	> 10000 nM	inhibition of P. falciparum asexual parasite replication / antimalarial activity (in words) ([7]; blood stage): did not inhibit
1080 nM	357 nM	343 nM	CN1C(=N)NC2(c3cc(F)ccc3F)CN(c3ncccc3-c3ccc(Cl)cc3)CC2C1=O (centres unmarked) [R/S‐WM48 (14), 6‐(3‐(4‐chlorophenyl)pyridin‐2‐yl)‐7a‐(2,5‐difluorophenyl)‐2‐imino‐3‐methylhexahydro‐1H‐pyrrolo[3,4‐d]pyrimidin‐4(4aH)‐one]	> 10000 nM	–
2170 nM	683 nM	64 nM	CN1C(=N)NC2(c3cc(F)ccc3F)CN(c3n[nH]cc3-c3ccccc3)CC2C1=O (centres unmarked) [R/S‐WM447 (28), 7a‐(2,5‐difluorophenyl)‐2‐imino‐3‐methyl‐6‐(4‐phenyl‐1H‐pyrazol‐3‐yl)hexahydro‐1H‐pyrrolo[3,4‐d]pyrimidin‐4(4aH)‐one]	1530 nM	–
